Consider one compound from patent publication US12122816B2, “Long acting peptide tyrosine tyrosine (PYY) analogs and methods of use” (Intarcia Therapeutics, Inc., priority 2020, dated 2024).

Data set [1] in a line: Solubility in DI water at room temperature (visual inspection). Format: physicochemical. The note with it: DI water, TFA salt form, read-out: Solubility (in Water, RT). The procedure: The analog polypeptides described herein were tested for solubility in saline or in aqueous (DI water) at room temperature. Samples were visually inspected for clarity of the sample, any appearance of turbidity or haziness.

The target in another data set is T1, human Y2 receptor (Homo sapiens, UniProt P49146).
T1 sequence (P49146 1-381): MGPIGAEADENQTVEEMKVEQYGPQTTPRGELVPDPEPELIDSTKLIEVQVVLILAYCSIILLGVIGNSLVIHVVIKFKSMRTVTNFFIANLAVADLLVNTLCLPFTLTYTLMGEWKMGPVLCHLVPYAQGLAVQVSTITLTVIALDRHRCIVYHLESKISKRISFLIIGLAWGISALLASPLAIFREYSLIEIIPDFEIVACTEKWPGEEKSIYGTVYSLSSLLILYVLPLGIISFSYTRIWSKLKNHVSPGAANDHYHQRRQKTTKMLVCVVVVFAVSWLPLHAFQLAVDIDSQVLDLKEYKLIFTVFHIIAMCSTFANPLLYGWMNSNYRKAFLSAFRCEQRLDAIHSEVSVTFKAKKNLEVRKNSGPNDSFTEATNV
Briefly: NPY receptor functional assay (cAMP, HEK-CNG cells, ACTOne membrane potential dye). As to conditions: NPY2R pEC50, HEK-CNG cells; standard PYY(3-36); species (human or rat) not given. Format: cell-based. The gist of the method: (§1)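 HEK-CNG cells stably expressing each human receptor; peptides added in triplicate for 50 minutes at room temperature, with agonism read as decreased isoproterenol-induced membrane potential dye signal (final/initial read).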

Another data set has as its target T2, human Y5 receptor (Homo sapiens, UniProt Q15761).
T2 sequence (Q15761 1-445): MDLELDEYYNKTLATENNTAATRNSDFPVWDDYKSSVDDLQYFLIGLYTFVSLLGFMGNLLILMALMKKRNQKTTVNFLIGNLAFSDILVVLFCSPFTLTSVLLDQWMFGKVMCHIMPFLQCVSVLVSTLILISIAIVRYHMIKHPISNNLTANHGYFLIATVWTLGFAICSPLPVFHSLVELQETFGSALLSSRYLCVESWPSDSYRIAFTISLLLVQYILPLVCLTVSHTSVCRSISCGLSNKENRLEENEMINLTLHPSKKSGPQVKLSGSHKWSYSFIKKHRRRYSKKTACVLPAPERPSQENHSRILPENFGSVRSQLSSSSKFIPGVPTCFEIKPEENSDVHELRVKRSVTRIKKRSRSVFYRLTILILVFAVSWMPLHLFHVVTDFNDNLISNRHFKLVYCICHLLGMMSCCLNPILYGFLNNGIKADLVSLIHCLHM
The description is as above. The format is cell-based. As to conditions: NPY5R pEC50, HEK-CNG cells; standard NPY; species (human or rat) not given. The gist of the method: as §1

Data set [2] can be described thus: In vitro stability in subcutaneous (SC) tissue homogenates. Format: in vitro ADME. As to conditions: subcutaneous tissue homogenate, pH 7.4; human SC tissue homogenate 1.0 mg protein/mL, 10 mcM peptide, 37° C.; read-out: (H)SC tissue stability t½ (converted).

The term solubility denotes the dissolved amount per volume that the medium holds. One may read the EC50 as the concentration giving half of the maximal effect. Read a high EC50 as a need for much substance. `CC(C)C[C@H](NC(=O)[C@H](Cc1ccc(O)cc1)NC(=O)[C@H](Cc1c[nH]cn1)NC(=O)[C@H](CCCNC(=N)N)NC(=O)[C@H](CC(C)C)NC(=O)[C@H](CC(=O)O)NC(=O)[C@@H](CCCCNC(=O)CC[C@H](NC(=O)CC[C@H](NC(=O)CCCCCCCCCCCCCCCCCCC(=O)O)C(=O)O)C(=O)O)NC(=O)[C@H](Cc1ccc(O)cc1)NC(=O)[C@H](Cc1ccc(O)cc1)NC(=O)[C@H](CCCNC(=N)N)NC(=O)[C@H](CC(N)=O)NC(=O)[C@H](Cc1c[nH]c2ccccc12)NC(=O)[C@H](CCC(=O)O)NC(=O)[C@H](CCC(=O)O)NC(=O)[C@@H]1CCCN1C(=O)[C@H](CO)NC(=O)[C@H](C)NC(=O)[C@H](CC(=O)O)NC(=O)[C@H](CCCCN)NC(=O)CNC(=O)[C@@H]1CCCN1C(=O)[C@H](C)NC(=O)[C@H](CCC(=O)O)NC(=O)[C@@H]1CCCN1C(=O)[C@H](CCCCN)NC(=O)[C@@H]1CCCN1)C(=O)N[C@@H](CC(N)=O)C(=O)N[C@@H](Cc1c[nH]c2ccccc12)C(=O)N[C@@H](CC(C)C)C(=O)N[C@H](C(=O)N[C@@H](CCCNC(=N)N)C(=O)N[C@@H](CCC(N)=O)C(=O)N[C@@H](CCCNC(=N)N)C(=O)N[C@@H](Cc1ccccc1)C(N)=O)[C@@H](C)O` [Compound A14]: in data set [1], the solubility is 79 mg/mL. The EC50 is 0.0794 nM on human Y2 receptor and 5.01 nM on human Y5 receptor. Moreover, in data set [2], the half-life at 10 mcM was 4.5 h.
